Source: patent US5011840A, “Imidazolidinedione derivatives in diabetes treatment” (Pfizer Inc., priority 1989, dated 1991)

Assays:
aldose reductase = target: T1, aldose reductase (Homo sapiens, UniProt P15121); assay: Inhibition of aldose reductase enzyme activity (procedure of Hayman et al. as modified by Sestanj et al.); assay type: biochemical; settings: for inhibition at 10 µM: 10^-5 M; for inhibition at 1 µM: 10^-6 M; for inhibition at 0.1 µM: 10^-7 M; for aldose reductase inhibition (in words): qualitative statement
T1 construct: partially purified aldose reductase enzyme obtained from human placenta; from tissue; host or cells: human placenta
Method: (§1) The activity of the compounds of the present invention, as agents for the control of chronic diabetic complications, is determined by their ability to successfully pass one or more of the following standard biological or pharmacological tests, viz., (1) measuring their ability to inhibit the enzyme activity of isolated aldose reductase; (2) measuring their ability to reduce or inhibit sorbitol accumulation in the sciatic nerve and lens of acutely streptozotocinized (i.e., diabetic) rats; (3) measuring their ability to reverse already-elevated sorbitol levels in the sciatic nerve and lens of chronic streptozotocin-induced diabetic rats; (4) measuring their ability to prevent or inhibit galactitol formation in the lens of acutely galactosemic rats, and (5) measuring their ability to delay cataract formation and reduce the severity of lens opacities in chronic galactosemic rats.
The following 5-substituted imidzolidinedione derivatives of Examples 1 and 4, respectively, were tested for their ability to reduce or inhibit aldose reductase enzyme activity via the procedure of S. Hayman et al., as described in the Journal of Biological Chemistry, Vol. 240, p. 877 (1965) and as modified by K. Sestanj et al. in U.S. Pat. No. 3,821,383. In each case, the substrate employed was partially purified aldose reductase enzyme obtained from human placenta.

[1] = test system: sorbitol levels in nerve and lens of diabetic subjects; assay: Lowering of sorbitol levels in sciatic/peripheral nerve and lens of diabetic subjects (general statement); assay type: in vivo; settings: qualitative statement
Method: as §1

[2] = test system: sorbitol accumulation in the lens; assay: Inhibition of sorbitol accumulation in the lens of streptozotocinized (diabetic) rats; assay type: in vivo, rat
Source text: (§2) As previously indicated, the 5-substituted imidazolidinedione compounds of this inventon are readily adapted to therapeutic use as aldose reductase inhibitors for the control of certain chronic diabetic complications, in view of their ability to reduce lens and peripheral nerve sorbitol levels in diabetic subjects to a statistically significant degree. […] Furthermore, the herein described compounds of this invention can be administered by either the oral, topical or parenteral routes of administration. […]
as §1, with “rats. […]” for “rats.”

[3] = test system: sorbitol accumulation in the sciatic nerve; assay: Inhibition of sorbitol accumulation in the sciatic nerve of streptozotocinized (diabetic) rats; assay type: in vivo, rat
Source text: as §2
as §1, with “rats. […]” for “rats.”

[4] = partially purified enzyme from human placenta, read-out: Percent Inhibition of aldose reductase activity
[5] = 25 mg./kg. orally at 4, 8 and 24 hours after streptozotocin, measured at 27 hours, vs untreated control
[6] = diabetic rats, oral, 25 mg./kg.

inhibition at 100 µM (aldose reductase; 10^-4 M, partially purified enzyme from human placenta, read-out: Percent Inhibition of aldose reductase activity) [%]	inhibition at 10 µM (aldose reductase; [4]) [%]	inhibition at 1 µM (aldose reductase; [4]) [%]	inhibition at 0.1 µM (aldose reductase; [4]) [%]	aldose reductase inhibition (in words) (aldose reductase)	inhibition at 0.01 µM (aldose reductase; 10^-8 M, partially purified enzyme from human placenta, read-out: Percent Inhibition of aldose reductase activity) [%]	SMILES	lowering sorbitol levels in the sciatic nerve and lens of diabetic subjects (in words) [1]	reduction in the accumulated sorbitol levels in the lens [2, 5] [%]	inhibition of the formation of sorbitol levels in the lens (in words) [2, 6]	reduction in the accumulated sorbitol levels in the sciatic nerve [3, 5] [%]	inhibition of the formation of sorbitol levels in the sciatic nerve (in words) [3, 6]
100	59	17	6	potent aldose reductase inhibitors		O=C1NC(=O)C(N2C(=O)c3cccc4cccc(c34)C2=O)N1 (stereo not shown) [Example 1, 5-naphthalimido-imidazolidine-2,4-dione]	effective in lowering sorbitol levels				
	91	86	72	potent aldose reductase inhibitors	20	O=C1NC(=O)C(c2nn(Cc3ccc(Br)cc3F)c(=O)c3ccccc23)N1 (stereo not shown) [Example 4, 5-[3-(4'-bromo-2'-fluorobenzyl)-3,4-dihydro-4-oxophthalazin-1-yl]-imidazolidine-2,4-dione]	effective in lowering sorbitol levels	36	to a significantly high degree	61	to a significantly high degree
